In patent US6692950B1, “Clavulanic acid dehydrogenase, preparation and use for the production of clavulanic acid” (SmithKline Beecham plc, priority 1993, dated 2004):
“Also recorded” adds a separate entry of the source. Like-named read-outs stand apart in the source and are kept apart here.

What was measured:
[1] = test system: broken cell suspension (BCS) of S.clavuligerus SC2; assay: Enzymic reduction of (III) to clavulanic acid by broken cell suspension, KaG bioassay; format: biochemical, Streptomyces clavuligerus
Description: Compound (I) was reduced to clavulanic acid by NADPH in the presence of a broken cell suspension of S. clavuligerus SC2 (Table 1). (SC2 is a reisolate of ATCC 27064). The clavulanic acid produced was detected by KaG bioassay (AG. Brown et al J. Antibiot., 1976, 29, 668) and chromatographic tapes loaded with the reaction mixture, were compared with standards to confirm the presence of clavulanic acid. The reduction was complete before a sample could be removed from the reaction vessel, but appeared to give clavulanic acid in only 14% yield. However, should the enzyme be capable of reducing only the Z isomer of (I) (the geometry of clavulanic acid), the yield is 42%.
Enzymic reduction of (III) to clavulanic acid:- solution of (III) (0.23 mg, 1 μmol, estimated by titration of acid (I)) in water ([…] 1μmol) was added to washed 48 hour S.clavuligerus SC2 cells which had been sonicated (EP 0213 914 example 20) (0.5 ml). The suspension was treated with 10 mM NADPH (0.1 ml, 1 umol), made up to one milliliter with 50 mM MOPS buffer at pH 7.0 and incubated in stoppered tubes at 26° C. Samples (0.2 ml) were removed, treated with methanol (0.2 ml) for 5 minutes, and centrifuged. The clear supernatants were made up to 1.6 ml with MOPS buffer and assayed on discs by the KaG method. Undiluted reaction mixture was applied to Whatman No. 1 chromatography tapes which were developed in either butan-1-ol-acetic acid-water (12:3:5) or butan-1-01-ethanol-water (7:1:2), dried, and visualised by application to a KaG bioassay plate. Standard clavulanic acid solutions were developed and visualised similarly.

[2] = Spontaneous decomposition in solution (h.p.l.c. / nmr); format: physicochemical; conditions: for % of the original remaining: 0.2 M aqueous sodium phosphate pH 6.85, room temperature, h.p.l.c.
Protocol: This instability prevented full characterisation of the acid (I), so it was converted with diazomethane to its methyl ester (IV) in an overall yield of 16% from the benzyl ester (II) (A.G. Brown et al, J. Chem. Soc. Perkin Trans. I, 1984, 635). The spectral data obtained for the methyl ester (IV) were indistinguishable from those obtained by A. G. Brown et al 1984.
Benzyl 3-oxoethylidene-7-oxo-4-oxa-1-azabicyclo[3.2.0]heptane-2-carboxylate (II) (50 mg, 0. 17m mol) was dissolved in tetrahydrofuran (5 ml) and 0.2 M sodium phosphate adjusted to pH 6.85 (5 ml), and hydrogenated at ambient temperature and pressure for ten minutes with 10% palladium on carbon (40 mg). The reaction mixture was rapidly filtered and evaporated to dryness while the temperature was maintained below 10° C. The residue was immediately redissolved in D2O to give a solution of the title compound (III). δH(250 MHz, D20) inter alia E isomer 3.25 (1H, d, J 17.4 Hz, 6β-H), 3.65 (1H, dd, J 17.4 and 2.9 Hz, 6 α-H), 5.73 (1H, d, J 1.2 Hz, 2-H), 5.79 (1H, dd, J 8.3 and 1 Hz, 8-H), 5.94 (1H, d, 2.7 Hz, 5-H), 9.55 (1H, d, J 8.3 Hz, 9-H), Z isomer 3.29 (1H, d, J 17.3 Hz, 6β-H), 3.65 (1H, dd, J 17.4 and 2.9 Hz, 6 α-H), 5.27 (1H, s, 2-H), 5.50 (1H, d, J 8.2 Hz, 8-H), 6.00 (1H, d, J2.7 Hz, 5-H), and 9.70 (1H, d, J 8.2 Hz, 9-H). The E and Z isomers were assigned on the relative positions of their 8-proton resonance (Gerald Brooks+Eric Huit J.Chem.Soc. Perkin Trans. I (1983) 2513) and were in the ratio E-Z (2:1). Material prepared by the above hydrogenation with water substituting for the phosphate solution and adjustment of the pH of the reaction mixture to 6.5 with 0.1 M NaOH gave (III) (Yield 35% from NaOH consumed), λmax. (H2O) 262 nm; vmax.(KBr) 3 400, 1 792 (br), and 1 640 cm^−1 (br), […]; thin layer chromatography on silica 60 eluted with butan- 1-ol-ethanol-water (4:1:1) and visualised with Schiffs reagent gave a blue zone (Rf:0.52). Addition of a known weight of fumaric acid to the crude product solution followed by evaporation and nmr analysis indicated a yield of 20% by comparison of the intensity of the fumarate protons with the intensity of the aldehydic proton of (M). When this solution was allowed to stand at room temperature for 3.5 hours, (III) was seen to have decomposed to a yield of 3.2%.

[3] = target: Klebsiella E70 β-lactamase; assay: β-lactamase inhibition by automated chromogenic substrate assay of Reading and Farmer; format: biochemical
Protocol: β-lactamase inhibition by (III): A solution of III was tested as a β-lactamase inhibitor by the automated chromogenic substrate assay of C. Reading and T. Farmeragainst Klebsiella E70 β-lactamase. Taking the yield of (III) from the hydrogenation reaction as 35% gave an I^50 with pre-incubation of 0.01 μg/ml and without pre-incubation of enzyme and inhibitor of 1μg/ml.

[4] = test system: broken cell suspension (BCS) of S.clavuligerus SC2; assay: Enzymic reduction of (III) to clavulanic acid by broken cell suspension, KaG bioassay; format: biochemical, Streptomyces clavuligerus; remark: listed apart in the source
β-lactamase = β-lactamase inhibitory activity (method not specified); format: biochemical
[5] = Boiled BCS + (III) + NADPH 1 mM

## O=CC=C1OC2CC(=O)N2C1C(=O)[O-].[Na+] (stereo not shown) [(III), Sodium 3-Oxoethylidene-7-oxo-4-oxa-1-azabicyclo (3.2.0)heptane-2-carboxylate]
[1]; BCS + (III) + NADPH 1 mM
  Clavulanic Acid at time 0 mins (KaG bioassy): 28.8 µg/mL
  Clavulanic Acid at time 60 mins: 27.2 µg/mL
[1]; [5]
  Clavulanic Acid at time 0 mins (KaG bioassy): 6.6 µg/mL
  Clavulanic Acid at time 60 mins: 6.6 µg/mL
[2]; after 35 minutes
  % of the original remaining: 85%
[2]; after 53 minutes
  % of the original remaining: 63%
[2]; room temperature for 3.5 hours, initial yield 20%
  yield remaining after decomposition on standing (nmr vs fumaric acid): 3.2%
[2]; solution of the salt, room temperature, repeated h.p.l.c. analysis
  time in which about half had decomposed: one
[3]; with pre-incubation of enzyme and inhibitor, yield of (III) from hydrogenation taken as 35%
  I50 with pre-incubation: 0.01 µg/mL
[3]; without pre-incubation of enzyme and inhibitor, yield of (III) taken as 35%
  I50 without pre-incubation: 1 µg/mL
[4]; (III) + NADPH 1 mM, no BCS
  Clavulanic Acid at time 0 mins (KaG bioassy): 8.8 µg/mL
  Clavulanic Acid at time 60 mins: 7.2 µg/mL
[4]; BCS + (III) + NADH 1 mM
  Clavulanic Acid at time 0 mins (KaG bioassy): 6.2 µg/mL
  Clavulanic Acid at time 60 mins: 6.6 µg/mL
[4]; BCS + (III)
  Clavulanic Acid at time 0 mins (KaG bioassy): 8.0 µg/mL
  Clavulanic Acid at time 60 mins: 7.0 µg/mL

## O=CC=C1CN2C(=O)CC2O1 (stereo not shown) [(V), 3-oxoethylidene-7-oxo-4-oxa-1-azabicyclo [3.2.0] heptane]
[2]; organic solution
  chemical and stereochemical stability: chemically and stereochemically stable in organic solution

## O=CC=C1OC2CC(=O)N2C1C(=O)O (stereo not shown) [Compound (I), 3-oxoethylidene-7-oxo-4-oxa-1-azabicyclo-[3.2.0] heptane-2-carboxylic acid]
β-lactamase; chemically synthesised
  β-lactamase inhibitory activity (in words): shown to possess β-lactamase inhibitory activity; also recorded: Strong β-lactamase activity
β-lactamase; more active than clavulanic acid
  activity as a β-lactamase inhibitor relative to clavulanic acid: approximately 100 times
[2]; (I) chemically synthesised from 2R, 5R clavulanic acid
  rate of decomposition compared with I 111 broth supernatant: same rate of decomposition
[2]; aqueous solution, read-out: half life in aqueous solution (converted)
  half-life: ~30 min
[2]; at 21° C., read-out: half-life
  half-life: ~30 min
